Test results published in patent publication US5863716A, “Treatment of plasmodium” (The Leland Stanford Junior University Board of Trustees, priority 1997, dated 1999).
Like-named read-outs stand apart in the source and are kept apart here.

Key:
Assay type in all cases: cell-based, Plasmodium falciparum
[1] = tested on: P. falciparum strain FCB; assay: Inhibition of intraerythrocytic growth in culture, Giemsa staining after 24 h; details: for inhibition at 5 µM: Plasmodium falciparum, read-out: [%] inhibition of growth
Description: (§1) P. falciparum strain FCB was used for all experiments and cultured in vitro in according to a modification of the method of Trager and Jensen left off. Trager, W. and Jensen, J. B. (1976) Human malaria in continuous culture., Science (Wash. D.C.) 193: 673-675 Haldar, K., Ferguson, M. A. J. and Cross, G. A. M. (1985) Acylation of a Plasmodium falciparum merozoite surface antigen via sn-1, 2-diacyl glycerol. J. Biol. Chem. 260; 4969-4974. The culture medium contained RPMI 1640 supplemented with 25 Mm hepes, Ph 7.4/11 […] glucose/92 μM hypoxanthine/0.18% sodium bicarbonate/25 μM gentamicin and 10% AB^+ human sera. The parasites were grown in A^+ erythrocytes at 2.5-5% hematocrit. Parasite cultures were synchronized by separation of the early and late stages on a Percoll gradient. The subsequent reincubation of these stages in culture were used to obtain cells 12-24 h in the life cycle. Inhibition of sphingomyelin biosynthetic activity using 5 μM of the various compounds was carried out as described in Example 1. 5 μM of the various compounds were added to 0-12 h rings in the culture medium and cells were examined by Giemsa staining after 24 h.

[2] = tested on: sphingomyelin synthase; assay: Inhibition of plasmodial sphingomyelin biosynthesis in intact infected erythrocytes (C6-NBD-ceramide to C6-NBD-sphingomyelin, TLC); details: for [%] inhibition of sphingomyelin biosynthetic activity: 5 μM of compound; for effect on enzyme (sphingomyelin synthase) activity: 5 μM, see Example 3
Experimental: 1×10^8 infected cells 24 h after invasion were washed serum-free in RPMI 1640 and preincubated for thirty min at 37° C. in 1 ml of RPMI 1640 containing 0-5 μM or 0-500 μM of PPMP. (C6-NBD-ceramide (N-[7-(4-nitrobenzo-2-oxa-1,3-diazide)]-6-aminocaproyl-D-erythro-sphingosine) was added to each sample at a final concentration of 5 μM, the samples further incubated for 30 min at 37° C. and cellular lipids extracted. C6-NBD-sphingomyelin was resolved by TLC and quantitated by fluorescence spectrophotometry as described previously. Bligh, E. G. and Dyer, W. Y. (1959) A rapid method for total lipid extraction and purification., Can. J. Biochem. Physiol. 37: 911-917. Haldar, K., Uyetake, L., Ahori, N., Elmendorf, H. G. and Lu, W-1. (1991) The accumulation and metabolism of a fluorescent ceramide derivative in Plasmodium falciparum--infected erythrocytes., Mo. Biochem. Parasitol. 49: 143-156. Elmendorf, H. G. and Haldar, K. (1994) Plasmodium falciparum exports the Golgi marker sphingomyelin synthase into a tubovesicular network in the cytoplasm of mature erythrocytes., J. Cell Biol. 124: 449-462. Each value obtained represented the mean of triplicate determinations from five experiments. The arrow bars indicate the standard deviations. The results are depicted in FIG. 1.
as §1

[3] = tested on: P. falciparum schizonts and merozoites; assay: Schizont maturation and merozoite invasion in the presence of drug; details: 5 μM
Experimental: Schizont-stage parasites isolated over Percoll were allowed to invade in the presence of RPMI 1640 containing 10% human serum or in the presence of RPMI 1640 containing 10% human serum and 5 μM PPMP. 1×10^8 infected erythrocytes of the appropriate stage were incubated in 1 ml of RPMI 1640 supplemented with 2mg/ml defatted BSA and 20 μM C5 -DMB-ceramide. Cells were washed and fixed as described in Example 5. Sequential micrographs were taken on a custom made laser confocal microscope at 400 nm intervals along the Z axis. Raw data were processed as described previously.
Furthermore, the released daughter merozoites enter red cells to form new rings in the continued presence of the drug. This supports the conclusion that the parasite sphingomyelin synthase is essential only to ring and trophozoite-infected red cells in the first 30 to 36 h of intraerythrocytic development.
To determine whether the parasite specific sphingomyelin synthase activity is required for the development of the TVM, ring-infected erythrocytes inhibited in the enzyme from the onset of intra- erythrocytic development were employed. […] Optical sections obtained by staining with C5 DMB-ceramide were observed. A tubular structure was seen extending from the body of the parasite apparently connected to a larger vesicle in the red cell. In rings formed in the presence of PPMP, the intraerythrocytic structures are seen as discrete domains, separated from each other in all three sections. […] Thus, specific inhibition of the parasite's sphingomyelin biosynthetic activity appears to alter the interconnected "tubovesicular morphology" of the TVM into isolated intraerythrocytic compartments or "vesicles" in ring stage parasites.

[4] = tested on: P. falciparum; assay: Intraerythrocytic development in long term synchronized culture, parasitemia over consecutive cycles; details: Plasmodium falciparum; over three cycles of growth; read-out: lowest effective, killing concentration
Experimental: Synchronized cultures 12 h after invasion were subjected to different concentrations of PPMP. Parasitemias of drug-treated cultures were determined at various time points during two intraerythrocytic cycles and compared to cells grown in the absence of drug.
The effect of the single lipid analogs to inhibit parasite development in long term culture in consecutive cycles of the parasite growth were investigated. The studies were initiated with synchronized, young rings (0-12h) at 10% parasitemia. In order to ensure healthy growth of the malaria parasite in vitro, the parasitemias of the cultures are not allowed to exceed 10%. Yet under normal conditions a 3-6 fold increase in parasitemias is detected with each round of invasion: thus for each new cycle, the cultures were diluted 4-fold into fresh erythrocytes in the absence or presence of the drug. […] The lowest effective, killing concentration of PDMP over three cycles of growth is 1.0 μM.

[5] = 5 μM added to 0-12 h rings, Giemsa staining after 24 h

Compound	[%] inhibition of sphingomyelin biosynthetic activity [2]	inhibition at 5 µM [1, 5]	also measured
CN(C)CCCN1c2ccccc2CCc2ccccc21 [imipramine]	0%	–	inhibition at 5 µM [1]: 7%
CCCCCCCCCCCCC/C=C/[C@@H](O)[C@@H](N)CO [sphingosine]	0%	–	inhibition at 5 µM [1]: 0%; effect on enzyme (sphingomyelin synthase) activity [2]: no effect
CCCCCCCCCCCCCCC[C@H](O)[C@@H](N)CO (racemic) [dl-dihydrosphingosine]	4%	–	[%] inhibition of growth [1, 5]: 8%; effect on enzyme (sphingomyelin synthase) activity [2]: no effect
CCCCCCCCCCCCCCCCCCN [stearylamine]	–	0%	–
CCCCCCCCCC(=O)N[C@@H](CN1CCOCC1)[C@H](O)c1ccccc1 (relative stereo) [dl-erythro-PDMP]	–	5%	–
CCCCCCCCCC(=O)N[C@H](CN1CCOCC1)[C@H](O)c1ccccc1 (relative stereo) [dl-threo-PDMP, dl-threo-1-phenyl-2-decanoylamino-3-morpholino-1-propanol]	–	100%	fate of schizonts greater than 40 h in the cycle [3]: mature and rupture; minimal effective concentration [4]: 1 µM
CCN(CC)CCO[C@H]1CC[C@@]2(C)C(=CC[C@@H]3[C@@H]2CC[C@]2(C)C(=O)CC[C@@H]32)C1 [U 18666 A]	0%	1%	–
